In article PMC13086964, “USP7 deubiquitinase stabilizes FAN1 to support DNA crosslink repair and suppress CAG repeat expansion” (Nature Communications, 2026):
Where no end group is shown, it is not given here. The star is where a group is joined. FITC = O=C1OC2(c3ccc(O)cc3Oc3cc(O)ccc32)c2ccc(NC(=S)*)cc21; Biotin = O=C1N[C@H]2[C@H](CS[C@H]2CCCCC(=O)*)N1; Ahx = NCCCCCC(=O)O

Legend:
[1] = tested on: cellular ubiquitin conjugates; assay: cellular ubiquitin conjugates after UAE inhibition; type: cell-based; conditions: HEK293T cells, 10 μM for 2 h
Procedure: (§1) Figure S1 (related to Figure 1). […]
ubiquitin. (A) HEK293eGFP-FAN1 cells were transfected either with non-targeting (Ctrl) or the indicated siRNA oligos. 24 h later, GFP-FAN1 expression was induced with Dox (100 ng/ml). 24 h post induction, cells were lysed and whole-cell extracts were subjected to GFP-Trap resin. Inputs and recovered protein complexes were analysed by immunoblotting. (B) HEK293 cells were transfected with either e.v. or GFP-FAN1-wt expressing constructs. 48 h later, cells were lysed and whole-cell extracts were incubated with a FAN1-derived 60-mer peptide (aa 118 to 177) for 2 h and subjected to GFP-Trap resin. Inputs and recovered protein complexes were analysed by immunoblotting. (C) HEK293T cells were transfected with either e.v. or GFP-FAN1-wt expressing constructs. 48 h later, cells were either mock-treated (-) or treated (+) with TAK-243 (10 μM) for 2 h, lysed and whole-cell extracts were subjected to GFP-Trap resin. Inputs and recovered protein complexes were analysed by immunoblotting. The experiments in (A-C) were repeated three independent times.
(1 picture or pasted object on this page, not shown here)

FAN1-USP7 = assay: GFP-Trap co-IP after UAE inhibition, FAN1-USP7 binding; type: cell-based, human; conditions: HEK293T cells, 10 μM for 2 h
Procedure: Cells were lysed in NP-40 buffer [50 mM tris-HCl (pH 7.5), 120 mM NaCl, 1 mM EDTA, 6 mM EGTA, 15 mM sodium pyrophosphate, and 1% NP-40, supplemented with phosphatase inhibitors (20 mM NaF and 1 mM Na3VO4) and protease inhibitors (1 mM benzamidine, 0.1 mM PMSF and cOmplete™ Protease Inhibitor Cocktail)], incubated with Benzonase (Merck) for at least 30 min at 4 °C, and clarified by centrifugation. Between 1 and 3 mg of lysates were incubated with anti-FLAG M2 (Sigma-Aldrich) or ChromoTek GFP-Trap® Agarose resin (Proteintech) for 2 h or overnight at 4 °C. The beads were then washed three times with NP-40 buffer and once with TEN100 buffer. Retrieved protein complexes were boiled in SDS sample buffer and analysed by SDS-PAGE followed by immunoblotting.
as §1
ubiquitin. (A) HEK293eGFP-FAN1 cells were transfected either with non-targeting (Ctrl) or the indicated siRNA oligos. 24 h later, GFP-FAN1 expression was induced with Dox (100 ng/ml). 24 h post induction, cells were lysed and whole-cell extracts were subjected to GFP-Trap resin. Inputs and recovered protein complexes were analysed by immunoblotting. (B) HEK293 cells were transfected with either e.v. or GFP-FAN1-wt expressing constructs. […] Inputs and recovered protein complexes were analysed by immunoblotting. […] Inputs and recovered protein complexes were analysed by immunoblotting. […]

USP7 = assay: streptavidin pulldown of biotinylated FAN1 peptides with recombinant His-USP7; type: binding, human; conditions: 10 µg peptide on Strep-Tactin XT 4Flow resin, 0.5 µg recombinant USP7, 2 h at 4 °C, immunoblot; for USP7 binding of biotinylated FAN1 peptide: 12mer TRAF peptides, repeated three times; for USP7 binding of biotinylated FAN1 UBL peptide: 13mer UBL peptides
Procedure: (§2) Fig. 2 FAN1 associates with the TRAF-like and UBL domains of USP7. A Top: schematic representation of the human USP7 protein indicating point mutants. TRAF tumour necrosis factor receptor associated factor (orange), CD catalytic domain (cyan), UBL ubiquitin-like (yellow to brown). Bottom: HEK293^eGFP-FAN1 cells were transfected with either e.v. or the indicated FLAG-USP7 expression constructs. 24 h later, GFP-FAN1 expression was induced with Dox (100 ng/ml). 48 h post induction, cells were lysed and whole-cell extracts were subjected to IP using anti-FLAG M2 affinity resin. Inputs and recovered protein complexes were analysed by immunoblotting. Asterisk indicates IgG heavy chain from anti-FLAG M2 affinity resin. B Sequences of the biotinylated 12-mer FAN1-derived TRAF peptides. The corresponding amino acids are indicated. Key residues are highlighted in bold. B, C Biotinylated FAN1 TRAF peptides (10 µg) were immobilized on Strep-Tactin®XT-4Flow® resin and incubated with recombinant purified His-USP7. Inputs and recovered His-USP7 were analysed by immunoblotting. D Fluorescence polarization (FP) binding curves of FITC-labelled FAN1-derived 8mer peptides: wild-type (wt; black circle), P181A (green triangle), Q182A (orange diamond), S184A (red square). The corresponding amino acids are indicated. Key residues are highlighted in bold. FP was measured as a function of USP7-TRAF (aa 2–207) concentration. FP values were normalized by expressing the millipolarization (mP) of each sample relative to the corresponding wild-type peptide. Background signal was corrected by subtracting baseline FP measured in the absence of USP7-TRAF. Data are presented as the means ± SD of three biological replicates (n = 3). E Top: schematic representation of the human USP7 protein indicating truncation mutants. TRAF tumour necrosis factor receptor associated factor, CD catalytic domain, UBL ubiquitin-like. HEK293^eGFP-FAN1 cells were transfected with either e.v. or the indicated FLAG-USP7 expression constructs. 24 h later, GFP-FAN1 expression was induced with Dox (100 ng/ml). 48 h post induction, cells were lysed and whole-cell extracts were subjected to IP using anti-FLAG M2 affinity resin. Inputs and recovered protein complexes were analysed by immunoblotting. Asterisk indicates IgG heavy chain from anti-FLAG M2 affinity resin. The experiments in (A–C, E) were repeated three independent times.
For peptide pull-down assays, biotinylated FAN1 peptides were incubated with Strep-Tactin® XT 4Flow® resin (IBA LifeScience) at room temperature for 30 minutes and washed four times with 0.1% Triton-PBS and two times with HNE buffer (20 mM HEPES pH 7.5, 0.2 mM EDTA, 0.5% NP-40, 150 mM NaCl, 0.5 mM DTT, 0.1% BSA, 0.5 mM PMSF). […] Beads were then washed three times with HNE buffer, once with TEN300 (20 mM Tris-HCl pH 7.4, 0.1 mM EDTA and 300 mM NaCl) and once with TEN100 buffer. Complexes were boiled in SDS sample buffer and analysed by SDS–PAGE followed by immunoblotting.
Figure S3 (Related to Figure 2). USP7 contacts FAN1 via its UBL domain. […]
Inputs and recovered MBP-His-FAN1 were analysed by immunoblotting. (C) Sequences of the biotinylated 13-mer FAN1-derived UBL peptides. The corresponding amino acids are indicated. Key residues are highlighted in bold. (C and D) Biotinylated FAN1 UBL peptides (10 µg) were immobilized on Strep-Tactin® XT 4Flow® resin and incubated with recombinant purified His-USP7. Inputs and recovered His-USP7 were analysed by immunoblotting. […]
The experiments in (A-E) were repeated three independent times.

USP7 TRAF (aa 2-207) = assay: fluorescence polarization assay, FITC-labelled FAN1-derived peptides; type: binding, human; conditions: 8mer FITC-labelled peptides; 20 mM HEPES pH 7.4, 50 mM KCl, 1 mM TCEP, 0.005% Tween-20, 0.2% DMSO; USP7 TRAF 14-point 2-fold from 200 µM; 1 µL of 200 nM peptide added to 19 µL; n = 3
Procedure: as §2, with “Data are presented as the means ± SD of three biological replicates (n = 3). E Top: schematic representation of the human USP7 protein indicating truncation mutants. TRAF tumour necrosis factor receptor associated factor, CD catalytic domain, UBL ubiquitin-like. HEK293^eGFP-FAN1 cells were transfected with either e.v. or the indicated FLAG-USP7 expression constructs. 24 h later, GFP-FAN1 expression was induced with Dox (100 ng/ml). 48 h post induction, cells were lysed and whole-cell extracts were subjected to IP using anti-FLAG M2 affinity resin.” left out, “Asterisk indicates IgG heavy chain from anti-FLAG M2 affinity resin. The experiments in (A–C, E) were repeated three independent times.” left out
USP7 TRAF (aa 2-207) was serially diluted (14-point, 2-fold) in assay buffer (20 mM HEPES (pH 7.4), 50 mM KCl, 1 mM TCEP, 0.005% Tween-20 (v/v), 0.2% DMSO (v/v)) from a top concentration of 200 µM. […] Fluorescence polarization (mP, millipolarization units) was measured using Agilent BioTek Synergy H1 with excitation 485 nm, emission 528 nm, gain 80, in a kinetic read (6 measurements in 30 min). […]

NS(=O)(=O)OC[C@H]1C[C@@H](Nc2ccnc3cc(-c4cccc(SC(F)(F)F)c4)nn23)[C@H](O)[C@@H]1O [TAK-243]
cellular ubiquitin conjugates [1]: depletion of cellular ubiquitin conjugates | FAN1-USP7 binding (FAN1-USP7): did not impact FAN1-USP7 binding

Biotin-AGSSPQSAKSTV-NH2 [TRAF3 S184A (12mer), biotinylated 12mer FAN1 peptide, S184A]
USP7 binding of biotinylated FAN1 peptide (USP7; listed as S184A ‘TRAF3’ mutant peptide): failed to bind | USP7 binding of biotinylated FAN1 peptide (USP7; listed as serine residue 184 to alanine (S184A)): abrogated USP7 binding

Biotin-PLEQGSSCNGPG-NH2 [TRAF4 (12mer), biotinylated 12mer FAN1 peptide containing the 358-EQGS-361 motif]
USP7 binding of biotinylated FAN1 peptide (USP7): weak USP7 binding

Biotin-SLASALSRAYVKA-NH2 [UBL2 2KA (12mer), FAN1 UBL2 K158A/K162A (2KA) 13mer peptide]
USP7 binding of biotinylated FAN1 UBL peptide (USP7): did not abolish USP7 association | USP7 binding of biotinylated FAN1 UBL peptide (USP7; listed as K158A/K162A ‘UBL2’ mutant peptide): no reduction in USP7 binding

Biotin-SLASKLSRKYVKA-NH2 [UBL2 (12mer), biotinylated FAN1-derived 13mer UBL peptide with 158-KLSRK-162]
USP7 binding of biotinylated FAN1 UBL peptide (USP7): exhibited detectable USP7 binding

{FITC-Ahx}-SSAQSSKS [TRAF3 P181A (8mer), FITC-labelled FAN1-derived 8mer peptide, P181A]
binding to the USP7 TRAF domain (FP) (USP7 TRAF (aa 2-207)): did not abolish the interaction

{FITC-Ahx}-SSPQSAKS [TRAF3 S184A (8mer), FITC-labelled FAN1-derived 8mer peptide, S184A]
binding to the USP7 TRAF domain (FP) (USP7 TRAF (aa 2-207)): markedly impaired binding

{FITC-Ahx}-SSPQSSKS [TRAF3 (8mer), FITC-labelled FAN1-derived 8mer peptide, wild-type]
binding to the USP7 TRAF domain (FP) (USP7 TRAF (aa 2-207)): bound efficiently to the USP7 TRAF domain
